In US10314806B2 (SICHUAN JIUZHANG BIOLOGICAL SCIENCE AND TECHNOLOGY CO., LTD., priority 2014, dated 2019):

How the values were obtained:
Assay type in all cases: in vivo
H22 liver cancer = test: Inhibition of KM mice-transplanted tumor of H22 liver cancer
Experimental: (1) Animal Kunming mice, half male and half female, body weight 16˜27 g.
Cell Lines H22 cell lines were mice liver cancer cells, and were subjected to suspension growth in RPMI-1640 media containing 10% calf serum, 100 U·ml^−1 penicillin, 100 μg·ml^−1 streptomycin, and cultured in an incubator at 37° C. under 5% CO2, followed by changing the medium and subculturing every two or three days.
(§1) Cell Culture H22 cells in exponential phase of growth were collected, centrifugated at 1000 rpm for 5 min, and washed twice. Viable cells were counted by trypan blue staining. The cells were quickly inoculated in abdominal cavity of KM mice, and after 7˜10 days, ascites were drawn and subcutaneously inoculated at the left forelimb armpit of mice at 0.2 ml/animal (containing about 2×10^7 cells). When tumor grew to 1 cm×1 cm×1 cm, mice were used in experiment. Mice tumors were aseptically stripped, and washed with Hank's solution thrice, to remove blood, fat and necrotic tissues. Tumors were cut to broken pieces of 1 mm×1 mm×1 mm, and washed with Hank's solution twice, to which physiological saline was added at a ratio of (1 g:3 ml), and then ground in a glass homogenizer and filtered by 80-100 mesh sieve to make a suspension of single cell. Viable cells were counted by trypan blue staining.
(§2) On the second day after inoculation, a dosage of 0.2 ml·10 g^−1 was administrated by intravenous injection (iv), once a day. When the average tumor weight in negative group was more than 1.0 g (tumor volume being about 0.5 cm^3), the experiment was stopped, and mice were sacrificed by cervical vertebrae removal and weighed. Tumors were stripped to calculate inhibitory rate.

EMT-6 breast cancer = test: Inhibition of BABLc mice-transplanted tumor of EMT-6 breast cancer; settings: 9 days
Experimental: (1) Animal BABLc mice, ♀, body weight 17˜21 g
Cell Lines EMT-6 cell lines were mice breast cancer cells, and grew adhering to the wall in RPMI-1640 complete media containing 10% calf serum, 1 mmol/L glutamine, 100 U·ml^−1 penicillin and 100 μg·ml^−1 streptomycin, and were cultured in an incubator at 37° C. under 5% CO2, followed by changing the medium and subculturing every two or three days.
as §1, with “Viable” for “Cell Culture H22 cells in exponential phase of growth were collected, centrifugated at 1000 rpm for 5 min, and washed twice. Viable”, “Cell suspension was” for “The cells were quickly inoculated in abdominal cavity of KM mice, and after 7˜10 days, ascites were drawn and”, “1×10^7 cells), and after” for “2×10^7 cells). When”
as §2, with “administrated to each group” for “administrated”, “intraperitoneal” for “intravenous”, “(ip) for successive 9 days,” for “(iv),”, “the” for “the average”, “g(tumor” for “g (tumor”

human brain glioma = test: Inhibition of mice-transplanted human brain glioma; settings: 15 days, mice
Experimental: Human brain glioma cell lines were obtained from Key Laboratory of Transplant Engineering and Immunology, Ministry of health, West China Hospital, Sichuan University.
(1) Model establishment Mice were divided into groups, 10 mice for each group. The solution of brain glioblastoma cell lines was suitably diluted, and inoculated in cortex of left temporal lobe of mice, respectively.
Administration and intervention 24 h after inoculation, mice in each group were administrated by intraperitoneal injection. […] Each group was administrated for successive 15 days.
Determination of tumor inhibitory rate On the last day, the administration was stopped, and all mice were sacrificed and dissected. Tumor tissues were stripped and weighed. Tumor inhibitory rate %=(The mean tumor weight of control group−The mean tumor weight of drug groups)[The mean tumor weight of control group]×100%.
Statistical method The variance analysis of data was performed using the statistical program software package (SPSS13.0 for Windows), and p<0.05 was considered to be a statistically significant difference.

[1] = 1 mg·kg^−1 intraperitoneal injection
[2] = 5 mg·kg^−1 intraperitoneal injection
[3] = 30 mg·kg^−1 intraperitoneal injection
[4] = 40 mg·kg^−1 intraperitoneal injection
[5] = 70 mg·kg^−1 intraperitoneal injection
[6] = 80 mg·kg^−1 intraperitoneal injection
[7] = 90 mg·kg^−1 intraperitoneal injection
[8] = 100 mg·kg^−1 intraperitoneal injection

O=C(/C=C/c1ccc(O)c(O)c1)O[C@@H]1C[C@](O)(C(=O)O)C[C@@H](O)[C@H]1O [Commercially available chlorogenic acid, chlorogenic acid, reference compound]
Inhibitory rate (H22 liver cancer; 1 mg·kg^−1 iv once a day): 5.1%
Tumor weight (H22 liver cancer; 1 mg·kg^−1 iv once a day): 2.228 ± 0.538 g
Inhibitory rate (H22 liver cancer; 5 mg·kg^−1 iv once a day): 17.4%
Tumor weight (H22 liver cancer; 5 mg·kg^−1 iv once a day): 1.939 ± 0.357 g
Inhibitory rate (H22 liver cancer; 10 mg·kg^−1 iv once a day, listed as Commercially availaavailable chlorogenic): 32.6%
Inhibitory rate (H22 liver cancer; 20 mg·kg^−1 iv once a day, listed as Commercially availaavailable chlorogenic): 31.8%
Inhibitory rate (H22 liver cancer; 30 mg·kg^−1 iv once a day): 31.9%
Inhibitory rate (H22 liver cancer; 40 mg·kg^−1 iv once a day): 28.1%
Inhibitory rate (H22 liver cancer; 50 mg·kg^−1 iv once a day): 23.4%
Tumor weight (H22 liver cancer; 50 mg·kg^−1 iv once a day): 1.799 ± 0.462 g
Inhibitory rate (H22 liver cancer; 60 mg·kg^−1 iv once a day): 21.3%
Tumor weight (H22 liver cancer; 60 mg·kg^−1 iv once a day): 1.848 ± 0.741 g
Inhibitory rate (H22 liver cancer; 70 mg·kg^−1 iv once a day): 14.6%
Tumor weight (H22 liver cancer; 70 mg·kg^−1 iv once a day): 2.005 ± 0.345 g
Inhibitory rate (H22 liver cancer; 80 mg·kg^−1 iv once a day): 13.7%
Tumor weight (H22 liver cancer; 80 mg·kg^−1 iv once a day): 2.026 ± 0.611 g
Inhibitory rate (H22 liver cancer; 90 mg·kg^−1 iv once a day): 9.8%
Tumor weight (H22 liver cancer; 90 mg·kg^−1 iv once a day): 2.118 ± 0.557 g
Inhibitory rate (H22 liver cancer; 100 mg·kg^−1 iv once a day): 7.2%
Tumor weight (H22 liver cancer; 100 mg·kg^−1 iv once a day): 2.179 ± 0.341 g
Inhibitory rate (EMT-6 breast cancer; 1 mg·kg^−1 ip once a day): 3.13%
Tumor weight (EMT-6 breast cancer; 1 mg·kg^−1 ip once a day): 1.299 ± 0.253 g
Inhibitory rate (EMT-6 breast cancer; 5 mg·kg^−1 ip once a day): 4.18%
Tumor weight (EMT-6 breast cancer; 5 mg·kg^−1 ip once a day): 1.285 ± 0.324 g
Inhibitory rate (EMT-6 breast cancer; 10 mg·kg^−1 ip once a day): 5.00%
Tumor weight (EMT-6 breast cancer; 10 mg·kg^−1 ip once a day): 1.274 ± 0.854 g
Inhibitory rate (EMT-6 breast cancer; 20 mg·kg^−1 ip once a day): 10.44%
Inhibitory rate (EMT-6 breast cancer; 30 mg·kg^−1 ip once a day): 11.63%
Inhibitory rate (EMT-6 breast cancer; 40 mg·kg^−1 ip once a day): 16.11%
Inhibitory rate (EMT-6 breast cancer; 50 mg·kg^−1 ip once a day): 16.85%
Inhibitory rate (EMT-6 breast cancer; 60 mg·kg^−1 ip once a day): 24.76%
Tumor weight (EMT-6 breast cancer; 60 mg·kg^−1 ip once a day): 1.009 ± 0.123 g
Inhibitory rate (EMT-6 breast cancer; 70 mg·kg^−1 ip once a day): 6.49%
Tumor weight (EMT-6 breast cancer; 70 mg·kg^−1 ip once a day): 1.254 ± 0.514 g
Inhibitory rate (EMT-6 breast cancer; 80 mg·kg^−1 ip once a day): 4.62%
Tumor weight (EMT-6 breast cancer; 80 mg·kg^−1 ip once a day): 1.279 ± 0143 g
Inhibitory rate (EMT-6 breast cancer; 90 mg·kg^−1 ip once a day): 3.21%
Tumor weight (EMT-6 breast cancer; 90 mg·kg^−1 ip once a day): 1.298 ± 0.423 g
Inhibitory rate (EMT-6 breast cancer; 100 mg·kg^−1 ip once a day): 2.16%
Tumor weight (EMT-6 breast cancer; 100 mg·kg^−1 ip once a day): 1.312 ± 0.087 g
Inhibitmy rate (human brain glioma; [1]): 9.10%
Tumor weight (human brain glioma; [1]): 1.319 ± 0.245 g
Inhibitmy rate (human brain glioma; [2]): 11.16%
Tumor weight (human brain glioma; [2]): 1.289 ± 0.289 g
Inhibitmy rate (human brain glioma; 10 mg·kg^−1 intraperitoneal injection): 19.09%
Inhibitmy rate (human brain glioma; 20 mg·kg^−1 intraperitoneal injection): 24.12%
Inhibitmy rate (human brain glioma; [3]): 30.74%
Tumor weight (human brain glioma; [3]): 1.005 ± 0.225 g
Inhibitmy rate (human brain glioma; [4]): 31.91%
Tumor weight (human brain glioma; [4]): 0.988 ± 0.025 g
Inhibitmy rate (human brain glioma; 50 mg·kg^−1 intraperitoneal injection): 23.85%
Inhibitmy rate (human brain glioma; 60 mg·kg^−1 intraperitoneal injection): 22.47%
Inhibitmy rate (human brain glioma; [5]): 15.58%
Tumor weight (human brain glioma; [5]): 1.225 ± 0.534 g
Inhibitmy rate (human brain glioma; [6]): 12.13%
Tumor weight (human brain glioma; [6]): 1.275 ± 0.043 g
Inhibitmy rate (human brain glioma; [7]): 11.30%
Tumor weight (human brain glioma; [7]): 1.287 ± 0.323 g
Inhibitmy rate (human brain glioma; [8]): 7.79%
Tumor weight (human brain glioma; [8]): 1.338 ± 0.187 g
